Here are results for eight compounds from patent US9593099B2, “Compounds and compositions as protein kinase inhibitors” (Array BioPharma, Inc., priority 2009, dated 2017).

Data set [1] can be described thus: In Vivo Pharmacokinetics Assay in mouse. As for the experimental part: In Vivo Pharmacokinetics Assay
Full pharmacokinetics study: Male Balb/c mice (n=3, body weights 22-25 g) or male Wistar rats (n=3, body weights 250-300 g) were administered the test compound intravenously via the lateral tail vein or orally via gavage. The formulation was typically a 2.5 mg/mL solution of the compound in 75% PEG300 and 25% D5W. Six blood samples of 50 μL each were collected serially for 24 h after dosing. The blood samples were centrifuged to separate the plasma. Plasma samples were analyzed and quantified by LC-MS/MS.
Rapid pharmacokinetics study: Male Balb/c mice (n=3, body weights 22-25 g) or male Wistar rats (n=3, body weights 250-300 g) were administered the test compound intravenously (IV) via the lateral tail vein or orally (PO) via gavage. The formulation was typically a 2.5 mg/mL solution of the compound in 75% PEG300 and 25% D5W. Six blood samples of 50 μL each were collected serially for 24 h after dosing. Blood samples were centrifuged and plasma separated and pooled across the three animals at each time point per dose route. Plasma samples were analyzed and quantified by LC-MS/MS.
For both full and rapid pharmacokinetics studies, the following parameters were calculated by non-compartmental regression analysis using Winnonlin 5.0 software (Pharsight, Mountain View, Calif., USA): plasma clearance (Cl), plasma maximum concentration (Cmax), plasma area-under-the-concentration-time-curve (AUC0-inf), and percent oral bioavailability (F %).

The nature of data set [2]: Liver Microsomal Clearance Assay, human. It counts as in vitro ADME. The text has this:
Liver Microsomal Clearance Assay
The in vitro microsomal clearance assay is designed to assess potential risks associated with hepatic metabolic stability of compounds. […] These values may be scaled to predict hepatic metabolic clearance rate (CLh, mL/min/kg) and extraction ratio (ER, expressed as a ratio of the predicted hepatic metabolic clearance to hepatic blood flow in that species). In general, compounds with high predicted CLint or ER in vitro are considered to be at high risk for exposure-limiting metabolism in vivo.
On the technique in general: Microsomes from liver hold many membrane-bound enzymes, among them those of drug oxidation.

Another data set deals with SW620 cells. Kind of data set: SW620 Cell Viability Assay (Cell Titer Glo). The following applies: 9 serial dilutions between 10 and 0.002 μM, without MEK inhibitor. It counts as cell-based. As for the experimental part:
The present invention also includes combinations of the BRaf inhibitors disclosed in this invention with other agents. In particular, the present invention provides for combinations with MEK1/2 inhibitors. FIG. 1 illustrates that the addition of a MEK small molecule inhibitor can reverse the induced ERK signaling, cell growth and transformation caused by a Raf small molecule inhibitor.
SW620 Cell Viability Assay
SW620 cells were seeded in 1640 RPMI+10% FBS at a density of 1500 cells per 96-well in black walled, clear bottom tissue culture treated plates. Test compounds were serially diluted in DMSO then added to the cells (final DMSO concentration of 0.1%) and incubated at 37° C. and 5% CO2 for 4 days. To measure cell viability, cell plates were brought to room temperature, culture media was removed, and 200 μl of Cell Titer-Glo reagent (Promega, kit components mixed as per the manufacturer's protocol then diluted 1:2 with growth media) was added to each well. Plates were shaken for 5 minutes, then incubated at room temperature for 5 minutes, and the luminescence was measured (Trilux, Perkin Elmer).
On the technique in general: In ATP-based viability assays light output follows the ATP content of the culture.

In a further data set the test system is p38α MAP Kinase. Kind of data set: A549 p38α MAP Kinase Bright-Glo Reporter Gene Assay. It counts as cell-based. The following applies: ratio of A549 p38 RGA IC50 to A375 CP IC50. As for the experimental part: A549 p38α MAP Kinase Bright-Glo Reporter Gene Assay
A549 cells were stably-transfected with the IL-8 promoter driven reporter, pGL3-IL8-Luc. The cells were plated at 4×10^5/ml into 384-well solid white plates (40 ul/well, 5% CD-FBS, 1×P/S, DMEM) and were incubated overnight (18-20 hours) at 37° C. Test compounds were serially diluted in DMSO, then 50 nl of test solution was added to the incubation (final DMSO concentration of 0.1%). After incubating with test compound for 30 min, cells were stimulated with 1 ng/ml IL-1 beta (10 ul of 5 ng/ml solution per well). Bright-Glo (25 ul/well) was added to measure luciferase expression after 7-8 hours of stimulation.

In the case of `CCCS(=O)(=O)Nc1cc(Cl)cc(-c2nn(C(C)C)cc2-c2ccnc(NC[C@H](C)NC(=O)OC)n2)c1F` [Compound 1, Methyl N-[(2S)-1-[(4-{3-[5-chloro-2-fluoro-3-(propane-1-sulfonamido)phenyl]-1-(propan-2-yl)-1H-pyrazol-4-yl}pyrimidin-2-yl)amino]propan-2-yl]carbamate], the F in data set [1] (PO/IV 5/2 mg/kg, n = 1) is 46 (n = 1) %.

Regarding `CCCS(=O)(=O)Nc1cccc(-c2nn(C(C)C)cc2-c2ccnc(NC[C@H](C)NC(=O)OC)n2)c1F` [Compound 3, methyl N-[(2S)-1-[(4-{3-[2-fluoro-3-(propane-1-sulfonamido)phenyl]-1-(propan-2-yl)-1H-pyrazol-4-yl}pyrimidin-2-yl)amino]propan-2-yl]carbamate], the F in data set [1] (PO/IV 5/2 mg/kg, n = 1) is 6 (n = 1) %. For `COC(=O)N[C@@H](C)CNc1nccc(-c2cn(C(C)C)nc2-c2cccc(NS(C)(=O)=O)c2F)n1` [Compound 4, methyl N-[(2S)-1-({4-[3-(2-fluoro-3-methanesulfonamidophenyl)-1-(propan-2-yl)-1H-pyrazol-4-yl]pyrimidin-2-yl}amino)propan-2-yl]carbamate], in data set [1] (PO/IV 10/2 mg/kg), the F is reported as 36 ± 6%. With `COC(=O)N[C@@H](C)CNc1nccc(-c2cn(C(C)C)nc2-c2c(F)ccc(NS(C)(=O)=O)c2F)n1` [Compound 6, methyl N-[(2S)-1-({4-[3-(2,6-difluoro-3-methanesulfonamidophenyl)-1-(propan-2-yl)-1H-pyrazol-4-yl]pyrimidin-2-yl}amino)propan-2-yl]carbamate], the “ER (human)” value in data set [2] turned out to be 0.69. Further, the F in data set [1] (PO/IV 10/2 mg/kg) is listed as 15 ± 3%. Compound `CCCS(=O)(=O)Nc1ccc(F)c(-c2nn(C(C)C)cc2-c2ccnc(NC[C@H](C)NC(=O)OC)n2)c1F` [Compound 7, Methyl N-[(2S)-1-[(4-{3-[2,6-difluoro-3-(propane-1-sulfonamido)phenyl]-1-(propan-2-yl)-1H-pyrazol-4-yl}pyrimidin-2-yl)amino]propan-2-yl]carbamate] returned a F in data set [1] (PO/IV 10/2 mg/kg) of 8 ± 7%.

As for `COC(=O)N[C@@H](C)CNc1nccc(-c2cn(C(C)C)nc2-c2cc(Cl)cc(NS(C)(=O)=O)c2F)n1` [Compound 9, Methyl N-[(2S)-1-({4-[3-(5-chloro-2-fluoro-3-methanesulfonamidophenyl)-1-(propan-2-yl)-1H-pyrazol-4-yl]pyrimidin-2-yl}amino)propan-2-yl]carbamate], the “ER (human)” value in data set [2] is on record as under 0.21. For the same compound, in data set [1] (PO/IV 10/2 mg/kg), the F turned out to be 43 ± 6%. In addition, in the data set on SW620 cells, the “effect on cellular proliferation (negative inhibition in FIG. 1)” value is “induction in cellular proliferation”. In the case of `CNc1nccc(-c2cn(C(C)C)nc2-c2cc(Cl)cc(NS(C)(=O)=O)c2F)n1` [Compound 29, N-(5-chloro-2-fluoro-3-{4-[2-(methylamino)pyrimidin-4-yl]-1-(propan-2-yl)-1H-pyrazol-3-yl}phenyl)methanesulfonamide], the “(p38 RGA)/(A375) ratio” value in the data set with p38α MAP Kinase is 220.

As to `COC(=O)NC[C@H](C)Nc1nccc(-c2cn(C(C)C)nc2-c2cc(Cl)cc(NS(C)(=O)=O)c2F)n1` [Compound 32, Methyl N-[(2S)-2-({4-[3-(5-chloro-2-fluoro-3-methanesulfonamidophenyl)-1-(propan-2-yl)-1H-pyrazol-4-yl]pyrimidin-2-yl}amino)propyl]carbamate], the “(p38 RGA)/(A375) ratio” value in the data set with p38α MAP Kinase is recorded as 91.
